1 compound from patent US6617336B1, “2-arylquinoline derivatives, preparation and therapeutic use thereof” (Sanofi-Synthelabo, priority 1999, dated 2003) can be followed below.

For orientation: melting point means the temperature, or range, at which the solid turns liquid. Consider `Cc1cc2cccc([C@H](CO)N3CCCC[C@H]3C)c2nc1-c1ccccc1.Cl`, for which the melting point worked out at 68 °C.
